Reference: PubChem BioAssay AID2060510 (Molecular Pharmacology Branch, DTP, NCI, 2025)

System: 439559-082-T-J2-PDC spheroids viability
Experiment: Anticancer human tumor 439559-082-T-J2-PDC patient-derived colon adenocarcinoma cell line growth inhibition [GQUAD]
Details: for IC50: curve of first compound; for viability, T/C: stronger effect = lower value
Outline: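 Tumor cells were grown as complex spheroids with HUVEC endothelial cells and mesenchymal stem cells as stroma. G-quadruplex stabilizers were combined with targeted agents over half-log dilutions from near the clinical Cmax, or from 10 microM.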

[1] = second compound 0.0316 µM, first compound 0.0316 µM
[2] = second compound 0.0316 µM, first compound 0.1 µM
[3] = second compound 0.0316 µM, first compound 0.316 µM
[4] = second compound 0.0316 µM, first compound 1 µM
[5] = second compound 0.0316 µM, first compound 3.16 µM
[6] = second compound 0.0316 µM, first compound 10 µM
[7] = second compound 0.1 µM, first compound 0.0316 µM
[8] = second compound 0.1 µM, first compound 0.1 µM
[9] = second compound 0.1 µM, first compound 0.316 µM
[10] = second compound 0.1 µM, first compound 1 µM
[11] = second compound 0.1 µM, first compound 3.16 µM
[12] = second compound 0.1 µM, first compound 10 µM
[13] = second compound 0.316 µM, first compound 0.0316 µM
[14] = second compound 0.316 µM, first compound 0.1 µM
[15] = second compound 0.316 µM, first compound 0.316 µM
[16] = second compound 0.316 µM, first compound 1 µM
[17] = second compound 0.316 µM, first compound 3.16 µM
[18] = second compound 0.316 µM, first compound 10 µM
[19] = second compound 1 µM, first compound 0.0316 µM
[20] = second compound 1 µM, first compound 0.1 µM
[21] = second compound 1 µM, first compound 0.316 µM
[22] = second compound 1 µM, first compound 1 µM
[23] = second compound 1 µM, first compound 3.16 µM
[24] = second compound 1 µM, first compound 10 µM
[25] = second compound 3.16 µM, first compound 0.0316 µM
[26] = second compound 3.16 µM, first compound 0.1 µM
[27] = second compound 3.16 µM, first compound 0.316 µM
[28] = second compound 3.16 µM, first compound 1 µM
[29] = second compound 3.16 µM, first compound 3.16 µM
[30] = second compound 3.16 µM, first compound 10 µM
[31] = second compound 10 µM, first compound 0.0316 µM
[32] = second compound 10 µM, first compound 0.1 µM
[33] = second compound 10 µM, first compound 0.316 µM
[34] = second compound 10 µM, first compound 1 µM
[35] = second compound 10 µM, first compound 3.16 µM
[36] = second compound 10 µM, first compound 10 µM
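Further: spheroids exposed to the agents for 7 days before readout.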
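Wherever viability, T/C is given: percent of luminescence signal in DMSO vehicle wells taken as 100% viability.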

In the case of COc1cccc2c1C(=O)c1c(O)c3c(c(O)c1C2=O)CC(O)(C(=O)CO)CC3OC1CC(N)C(O)C(C)O1 (stereo not drawn) + Cc1[nH]c2ccc(F)cc2c1-c1nc2c3cccnc3c3ncccc3c2[nH]1, the IC50 (second compound 0.0316 µM) is reported as greater than 10 µM, the IC50 (second compound 0.1 µM) is reported as greater than 10 µM and the IC50 (second compound 0.316 µM) is reported as greater than 10 µM. For the same compound, the IC50 (second compound 1 µM) was greater than 10 µM, the IC50 (second compound 3.16 µM) was 9.82 µM and the IC50 (second compound 10 µM) was 5.25 µM. For the same compound, the viability, T/C [1] was 98.5%, the viability, T/C [2] was 100% and the viability, T/C [3] was 96.2%. For the same compound, the viability, T/C [4] was 82.1%, the viability, T/C [5] was 61.5% and the viability, T/C [6] was 54.2%. It also gave a viability, T/C [7] of 107%, a viability, T/C [8] of 99% and a viability, T/C [9] of 89.1%. For the same compound, the viability, T/C [10] was 87.5%, the viability, T/C [11] was 69.5% and the viability, T/C [12] was 54.1%. It also gave a viability, T/C [13] of 98.9%, a viability, T/C [14] of 95.3% and a viability, T/C [15] of 85.9%. It also gave a viability, T/C [16] of 89.2%, a viability, T/C [17] of 62.7% and a viability, T/C [18] of 50.8%. For the same compound, the viability, T/C [19] was 87.9%, the viability, T/C [20] was 87% and the viability, T/C [21] was 82.1%. For the same compound, the viability, T/C [22] was 83.2%, the viability, T/C [23] was 67.3% and the viability, T/C [24] was 56.2%. It also gave a viability, T/C [25] of 80.4%, a viability, T/C [26] of 75% and a viability, T/C [27] of 85.2%. The viability, T/C [28] was 64.2%, the viability, T/C [29] was 63.3% and the viability, T/C [30] was 49.7%. For the same compound, the viability, T/C [31] was 92.3%, the viability, T/C [32] was 80.3% and the viability, T/C [33] was 69.8%. For the same compound, the viability, T/C [34] was 68.2%, the viability, T/C [35] was 53.2% and the viability, T/C [36] was 43.9%.
For Cc1cccc(N(C)C(=O)C2C(O)CCN2c2nc(C)cc(C(F)(F)F)c2C#N)c1 (stereo not drawn) + Cc1[nH]c2ccc(F)cc2c1-c1nc2c3cccnc3c3ncccc3c2[nH]1, the IC50 (second compound 0.0316 µM) was greater than 10 µM, the IC50 (second compound 0.1 µM) was greater than 10 µM and the IC50 (second compound 0.316 µM) was greater than 10 µM. For the same compound, the IC50 (second compound 1 µM) was greater than 10 µM, the IC50 (second compound 3.16 µM) was greater than 10 µM and the IC50 (second compound 10 µM) was greater than 10 µM. It also gave a viability, T/C [1] of 98.7%, a viability, T/C [2] of 106% and a viability, T/C [3] of 99.8%. The viability, T/C [4] was 103%, the viability, T/C [5] was 92.8% and the viability, T/C [6] was 95.9%. The viability, T/C [7] was 106%, the viability, T/C [8] was 91.6% and the viability, T/C [9] was 99.8%. The viability, T/C [10] was 96.3%, the viability, T/C [11] was 100% and the viability, T/C [12] was 92.6%. It also gave a viability, T/C [13] of 98.6%, a viability, T/C [14] of 101% and a viability, T/C [15] of 92.7%. The viability, T/C [16] was 108%, the viability, T/C [17] was 96.2% and the viability, T/C [18] was 83.3%. For the same compound, the viability, T/C [19] was 96.2%, the viability, T/C [20] was 91.2% and the viability, T/C [21] was 87.4%. For the same compound, the viability, T/C [22] was 100%, the viability, T/C [23] was 88.9% and the viability, T/C [24] was 88.1%. For the same compound, the viability, T/C [25] was 78.6%, the viability, T/C [26] was 77.7% and the viability, T/C [27] was 93.1%. The viability, T/C [28] was 88.3%, the viability, T/C [29] was 84.7% and the viability, T/C [30] was 77%. It also gave a viability, T/C [31] of 85.5%, a viability, T/C [32] of 83.6% and a viability, T/C [33] of 87.5%. For the same compound, the viability, T/C [34] was 84.9%, the viability, T/C [35] was 87% and the viability, T/C [36] was 78.5%.
Nc1ccn(C2OC(CO)C(O)C2(F)F)c(=O)n1 (stereo not drawn) + Cc1[nH]c2ccc(F)cc2c1-c1nc2c3cccnc3c3ncccc3c2[nH]1 was tested, and the IC50 (second compound 0.0316 µM) was 0.375 µM, the IC50 (second compound 0.1 µM) was 0.468 µM and the IC50 (second compound 0.316 µM) was 0.362 µM. It also gave an IC50 (second compound 1 µM) of 0.304 µM, an IC50 (second compound 3.16 µM) of 0.203 µM and an IC50 (second compound 10 µM) of 0.211 µM. It also gave a viability, T/C [1] of 84.5%, a viability, T/C [2] of 76.7% and a viability, T/C [3] of 51.8%. It also gave a viability, T/C [4] of 34.9%, a viability, T/C [5] of 26.7% and a viability, T/C [6] of 25.9%. For the same compound, the viability, T/C [7] was 92.7%, the viability, T/C [8] was 71.9% and the viability, T/C [9] was 59%. For the same compound, the viability, T/C [10] was 36.9%, the viability, T/C [11] was 29.5% and the viability, T/C [12] was 23.3%. It also gave a viability, T/C [13] of 98.8%, a viability, T/C [14] of 73.6% and a viability, T/C [15] of 47.8%. For the same compound, the viability, T/C [16] was 41.3%, the viability, T/C [17] was 28.6% and the viability, T/C [18] was 23.7%. For the same compound, the viability, T/C [19] was 82.8%, the viability, T/C [20] was 67.8% and the viability, T/C [21] was 50.4%. For the same compound, the viability, T/C [22] was 32.8%, the viability, T/C [23] was 27.6% and the viability, T/C [24] was 22.6%. For the same compound, the viability, T/C [25] was 73.3%, the viability, T/C [26] was 65.1% and the viability, T/C [27] was 38.6%. For the same compound, the viability, T/C [28] was 31%, the viability, T/C [29] was 26.4% and the viability, T/C [30] was 17.5%. For the same compound, the viability, T/C [31] was 73.2%, the viability, T/C [32] was 66.2% and the viability, T/C [33] was 40.9%. The viability, T/C [34] was 27%, the viability, T/C [35] was 26.2% and the viability, T/C [36] was 19%.
O=c1[nH]cc(F)c(=O)[nH]1 + Cc1[nH]c2ccc(F)cc2c1-c1nc2c3cccnc3c3ncccc3c2[nH]1 showed an IC50 (second compound 0.0316 µM) greater than 10 µM, an IC50 (second compound 0.1 µM) greater than 10 µM and an IC50 (second compound 0.316 µM) greater than 10 µM. For the same compound, the IC50 (second compound 1 µM) was greater than 10 µM, the IC50 (second compound 3.16 µM) was greater than 10 µM and the IC50 (second compound 10 µM) was greater than 10 µM. It also gave a viability, T/C [1] of 90.7%, a viability, T/C [2] of 95.5% and a viability, T/C [3] of 87.7%. The viability, T/C [4] was 78.9%, the viability, T/C [5] was 76.8% and the viability, T/C [6] was 82.3%. For the same compound, the viability, T/C [7] was 101%, the viability, T/C [8] was 89.8% and the viability, T/C [9] was 83.3%. The viability, T/C [10] was 75.1%, the viability, T/C [11] was 73.3% and the viability, T/C [12] was 83.4%. It also gave a viability, T/C [13] of 101%, a viability, T/C [14] of 99.2% and a viability, T/C [15] of 83.7%. The viability, T/C [16] was 74.8%, the viability, T/C [17] was 79.5% and the viability, T/C [18] was 76.3%. It also gave a viability, T/C [19] of 91.9%, a viability, T/C [20] of 96.3% and a viability, T/C [21] of 79.1%. It also gave a viability, T/C [22] of 72.8%, a viability, T/C [23] of 70.6% and a viability, T/C [24] of 72.3%. The viability, T/C [25] was 103%, the viability, T/C [26] was 88.8% and the viability, T/C [27] was 76.5%. For the same compound, the viability, T/C [28] was 65%, the viability, T/C [29] was 62.5% and the viability, T/C [30] was 59.1%. For the same compound, the viability, T/C [31] was 82.2%, the viability, T/C [32] was 81.9% and the viability, T/C [33] was 67.9%. For the same compound, the viability, T/C [34] was 59.3%, the viability, T/C [35] was 57.5% and the viability, T/C [36] was 59.8%.
